Measurements reported in patent US10131652B2, “Pyrimidinyloxy benzene derivatives as herbicides” (E. I. DU PONT DE NEMOURS AND COMPANY, priority 2014, dated 2018).
Where two headings read alike, the source gives them in different places.

Key:
Assay type in all cases: in vivo
[1] = test system: velvetleaf (Abutilon theophrasti); test: Test B pre-/postemergence plant response; conditions: for pest or weed control at 500 g/ha: 500 g ai/ha
Summary of the method: (§1)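 Steps: plant seeds in loam soil–sand mix; spray soil preemergence, and in parallel spray 2–10 cm one- to two-leaf plants postemergence; hold ~10 days in greenhouse; visually rate injury against untreated controls (0 = no effect, 100 = complete control).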

[2] = test system: morningglory (Ipomoea spp.); test: Test B pre-/postemergence plant response; conditions: for pest or weed control at 500 g/ha: 500 g ai/ha
Summary of the method: as §1

[3] = test system: large (Lg) crabgrass (Digitaria sanguinalis); test: Test B pre-/postemergence plant response; conditions: for pest or weed control at 500 g/ha: 500 g ai/ha
Summary of the method: as §1

[4] = test system: waterhemp_RES1 (ALS & Triazine resistant common waterhemp, Amaranthus rudis); test: Test F postemergence plant response; conditions: scale 0 to 100
Summary of the method: (§2)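 Rated visually versus controls, 0 (no effect) to 100 (complete control), after 14–21 days in greenhouse. Compounds were sprayed postemergence on seedlings at 1- to 4-leaf stage, 2–18 cm tall.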

[5] = test system: waterhemp_RES2 (ALS & HPPD resistant common waterhemp, Amaranthus rudis); test: Test F postemergence plant response; conditions: scale 0 to 100
Summary of the method: as §2

[6] = test system: Brazilian crabgrass (Digitaria horizontalis); test: Test F pre-/postemergence plant response; conditions: Digitaria horizontalis, scale 0 to 100, read-out: Plant response rating, Crabgrass, Brazil
Summary of the method: (§3)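 In a greenhouse, compounds carried in a non-phytotoxic surfactant-containing solvent mixture were applied to soil at planting and to young 1- to 4-leaf plants. About two to three weeks (14 to 21 days) afterward, each species was compared with controls and rated visually from 0 to 100.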

[7] = test system: wild poinsettia (Euphorbia heterophylla); test: Test F pre-/postemergence plant response; conditions: Euphorbia heterophylla, scale 0 to 100, read-out: Plant response rating, Poinsettia, Wild
Summary of the method: as §3

[8] = test system: ragweed (common ragweed, Ambrosia elatior); test: Test B pre-/postemergence plant response
Summary of the method: as §1

kochia (Kochia scoparia) = test: Test B pre-/postemergence plant response
Summary of the method: as §1

[9] = test system: Italian ryegrass (Lolium multiflorum); test: Test B pre-/postemergence plant response
Summary of the method: as §1

[10] = test system: blackgrass (Alopecurus myosuroides); test: Test B postemergence plant response
Summary of the method: (§4)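 Visual injury rating, 0–100 (0 = no effect, 100 = complete control), vs untreated controls ~10 days after postemergence spray; greenhouse; potted loam soil/sand; plants 2–10 cm, 1–2 leaf stage.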

[11] = test system: galium (catchweed bedstraw, Galium aparine); test: Test B postemergence plant response
Summary of the method: as §4

[12] = Preemergence, 125 g ai/ha, 0 to 100 scale (0 no effect, 100 complete control)
[13] = post-emergence, 8 g ai/ha Postemergence
[14] = post-emergence, 16 g ai/ha Postemergence
[15] = post-emergence, 31 g ai/ha Postemergence
[16] = post-emergence, 62 g ai/ha Postemergence
[17] = post-emergence, 125 g ai/ha Postemergence
[18] = pre-emergence, 8 g ai/ha Preemergence
[19] = pre-emergence, 16 g ai/ha Preemergence
[20] = pre-emergence, 31 g ai/ha Preemergence
[21] = pre-emergence, 62 g ai/ha Preemergence
[22] = pre-emergence, 125 g ai/ha Preemergence
[23] = 31 g ai/ha, Preemergence, 0 to 100 scale where 0 is no effect and 100 is complete control
[24] = 125 g ai/ha, postemergence, 0 to 100 scale, 0 no effect, 100 complete control
[25] = Postemergence, 31 g ai/ha, 0 to 100 scale (0 no effect, 100 complete control)

FC(F)(F)c1cc(-c2ccccc2Oc2ncc(Cl)cn2)no1 [Compound 200, 5-chloro-2-[2-[5-(trifluoromethyl)-3-isoxazolyl]phenoxy]pyrimidine]
pest or weed control at 125 g/ha ([1]; Abutilon theophrasti, post-emergence, 240 h, 125 g ai/ha, postemergence, 0 to 100 scale, 0 no effect, 100 complete control, read-out: Plant response rating, Velvetleaf): 100%
pest or weed control at 500 g/ha ([1]; Abutilon theophrasti, post-emergence, 240 h, postemergence, 0 to 100 scale, 0 no effect, 100 complete control, read-out: Plant response rating, Velvetleaf): 100%
pest or weed control at 500 g/ha ([1]; Abutilon theophrasti, pre-emergence, 240 h, Preemergence, 0 to 100 scale where 0 is no effect and 100 is complete control, read-out: Plant response rating, Velvetleaf): 90%
Velvetleaf plant response rating [1, 12]: 80
pest or weed control at 125 g/ha ([2]; Ipomoea, post-emergence, 240 h, 125 g ai/ha, postemergence, 0 to 100 scale, 0 no effect, 100 complete control, read-out: Plant response rating, Morningglory): 90%
pest or weed control at 500 g/ha ([2]; Ipomoea, post-emergence, 240 h, postemergence, 0 to 100 scale, 0 no effect, 100 complete control, read-out: Plant response rating, Morningglory): 100%
pest or weed control at 500 g/ha ([2]; Ipomoea, pre-emergence, 240 h, Preemergence, 0 to 100 scale where 0 is no effect and 100 is complete control, read-out: Plant response rating, Morningglory): 100%
Morningglory plant response rating [2, 12]: 20
pest or weed control at 125 g/ha ([3]; Digitaria sanguinalis, post-emergence, 240 h, 125 g ai/ha, postemergence, 0 to 100 scale, 0 no effect, 100 complete control, read-out: Plant response rating, Crabgrass, Large): 100%
pest or weed control at 500 g/ha ([3]; Digitaria sanguinalis, post-emergence, 240 h, postemergence, 0 to 100 scale, 0 no effect, 100 complete control, read-out: Plant response rating, Crabgrass, Large): 100%
pest or weed control at 500 g/ha ([3]; Digitaria sanguinalis, pre-emergence, 240 h, Preemergence, 0 to 100 scale where 0 is no effect and 100 is complete control, read-out: Plant response rating, Crabgrass, Large): 100%
Crabgrass, Large plant response rating [3, 12]: 100
Plant response rating, Waterhemp_RES1 ([4]; 8 g ai/ha Postemergence): 70
Plant response rating, Waterhemp_RES1 ([4]; 16 g ai/ha Postemergence): 75
Plant response rating, Waterhemp_RES1 ([4]; 31 g ai/ha Postemergence): 90
Plant response rating, Waterhemp_RES1 ([4]; 62 g ai/ha Postemergence): 95
Plant response rating, Waterhemp_RES1 ([4]; 125 g ai/ha Postemergence): 98
Plant response rating, Waterhemp_RES2 ([5]; 8 g ai/ha Postemergence): 75
Plant response rating, Waterhemp_RES2 ([5]; 16 g ai/ha Postemergence): 95
Plant response rating, Waterhemp_RES2 ([5]; 31 g ai/ha Postemergence): 95
Plant response rating, Waterhemp_RES2 ([5]; 62 g ai/ha Postemergence): 98
Plant response rating, Waterhemp_RES2 ([5]; 125 g ai/ha Postemergence): 98
pest or weed control at 8 g/ha [6, 13]: 10%
pest or weed control at 16 g/ha [6, 14]: 10%
pest or weed control at 31 g/ha [6, 15]: 15%
pest or weed control at 62 g/ha [6, 16]: 20%
pest or weed control at 125 g/ha [6, 17]: 20%
pest or weed control at 8 g/ha [6, 18]: 0%
pest or weed control at 16 g/ha [6, 19]: 90%
pest or weed control at 31 g/ha [6, 20]: 98%
pest or weed control at 62 g/ha [6, 21]: 100%
pest or weed control at 125 g/ha [6, 22]: 100%
pest or weed control at 8 g/ha [7, 13]: 35%
pest or weed control at 16 g/ha [7, 14]: 50%
pest or weed control at 31 g/ha [7, 15]: 40%
pest or weed control at 62 g/ha [7, 16]: 60%
pest or weed control at 125 g/ha [7, 17]: 80%
pest or weed control at 8 g/ha [7, 18]: 0%
pest or weed control at 16 g/ha [7, 19]: 0%
pest or weed control at 31 g/ha [7, 20]: 20%
pest or weed control at 125 g/ha [7, 22]: 70%
pest or weed control at 62 g/ha ([7]; pre-emergence, Preemergence): 60%

Fc1cccc(Oc2ncc(Br)cn2)c1-c1cc(C(F)F)no1 [Compound 145, 5-bromo-2-[2-[3-(difluoromethyl)-5-isoxazolyl]-3-fluorophenoxy]pyrimidine]
Plant response rating, Ragweed [8, 23]: 0
Plant response rating, Ragweed [8, 24]: 50
Plant response rating, Ragweed [8, 25]: 20
Ragweed plant response rating [8, 12]: 20
Plant response rating, Kochia (kochia (Kochia scoparia); [23]): 90
Plant response rating, Kochia (kochia (Kochia scoparia); [24]): 100
Plant response rating, Kochia (kochia (Kochia scoparia); [25]): 100
Kochia plant response rating (kochia (Kochia scoparia); [12]): 100
Plant response rating, Ryegrass, Italian [9, 23]: 0
Plant response rating, Ryegrass, Italian [9, 24]: 80
Plant response rating, Ryegrass, Italian [9, 25]: 20
Ryegrass, Italian plant response rating [9, 12]: 40
Plant response rating, Blackgrass [10, 24]: 90
Plant response rating, Blackgrass [10, 25]: 70
Plant response rating, Galium [11, 24]: 100
Plant response rating, Galium [11, 25]: 100
Plant response rating, Waterhemp_RES1 ([4]; 16 g ai/ha Postemergence): 95
Plant response rating, Waterhemp_RES1 ([4]; 31 g ai/ha Postemergence): 98
Plant response rating, Waterhemp_RES1 ([4]; 62 g ai/ha Postemergence): 100
Plant response rating, Waterhemp_RES1 ([4]; 125 g ai/ha Postemergence): 100
Plant response rating, Waterhemp_RES2 ([5]; 16 g ai/ha Postemergence): 95
Plant response rating, Waterhemp_RES2 ([5]; 31 g ai/ha Postemergence): 90
Plant response rating, Waterhemp_RES2 ([5]; 62 g ai/ha Postemergence): 100
Plant response rating, Waterhemp_RES2 ([5]; 125 g ai/ha Postemergence): 100
pest or weed control at 16 g/ha [6, 14]: 20%
pest or weed control at 31 g/ha [6, 15]: 20%
pest or weed control at 62 g/ha [6, 16]: 40%
pest or weed control at 125 g/ha [6, 17]: 50%
pest or weed control at 16 g/ha [6, 19]: 5%
pest or weed control at 31 g/ha [6, 20]: 80%
pest or weed control at 62 g/ha [6, 21]: 95%
pest or weed control at 125 g/ha [6, 22]: 100%
pest or weed control at 16 g/ha [7, 14]: 70%
pest or weed control at 31 g/ha [7, 15]: 75%
pest or weed control at 62 g/ha [7, 16]: 80%
pest or weed control at 125 g/ha [7, 17]: 80%
pest or weed control at 16 g/ha [7, 19]: 0%
pest or weed control at 31 g/ha [7, 20]: 0%
pest or weed control at 125 g/ha [7, 22]: 65%
pest or weed control at 62 g/ha ([7]; pre-emergence, Preemergence): 65%
